According to US5182284A, “Piperazine compounds, processes for preparation thereof and medical uses thereof” (Taiho Pharmaceutical Co., Ltd., priority 1990, dated 1993):

Key:
Cyclooxygenase = Cyclooxygenase inhibitory effect; format: biochemical; settings: seminal vesicular gland microsomes, 14C-arachidonic acid, prostaglandin E2 formation
Experimental: (1) Cyclooxygenase inhibitory effect
The assay was carried out by the method described in Biochem. Pharmacol. 25, 2479-2484 (1976).
^14 C-Arachidonic acid was reacted with seminal vesicular gland microsomes and the test drugs at various concentrations over a predetermined period of time and the obtained prostaglandin E2 was separated by thin-layer chromatography. The radioactivity was determined by liquid scintillation counter. The IC50 values were calculated by the comparison with the radioactivity of the control.

5-Lipoxygenase = target: T1, 5-Lipoxygenase (Cavia porcellus, UniProt A0A286X958); test: 5-Lipoxygenase inhibitory effect; format: biochemical; settings: cytosol fraction of guinea pig polymorphonuclear leukocytes, 14C-arachidonic acid, 5-hydroxyeicosatetraenoic acid formation
T1 construct: the polymorphonuclear leukocytes were collected and the cytosol fraction was obtained as an enzyme source; endogenous in cells; host or cells: guinea pig peritoneal polymorphonuclear leukocytes (casein-elicited), cytosol fraction
T1 sequence (A0A286X958 1-674): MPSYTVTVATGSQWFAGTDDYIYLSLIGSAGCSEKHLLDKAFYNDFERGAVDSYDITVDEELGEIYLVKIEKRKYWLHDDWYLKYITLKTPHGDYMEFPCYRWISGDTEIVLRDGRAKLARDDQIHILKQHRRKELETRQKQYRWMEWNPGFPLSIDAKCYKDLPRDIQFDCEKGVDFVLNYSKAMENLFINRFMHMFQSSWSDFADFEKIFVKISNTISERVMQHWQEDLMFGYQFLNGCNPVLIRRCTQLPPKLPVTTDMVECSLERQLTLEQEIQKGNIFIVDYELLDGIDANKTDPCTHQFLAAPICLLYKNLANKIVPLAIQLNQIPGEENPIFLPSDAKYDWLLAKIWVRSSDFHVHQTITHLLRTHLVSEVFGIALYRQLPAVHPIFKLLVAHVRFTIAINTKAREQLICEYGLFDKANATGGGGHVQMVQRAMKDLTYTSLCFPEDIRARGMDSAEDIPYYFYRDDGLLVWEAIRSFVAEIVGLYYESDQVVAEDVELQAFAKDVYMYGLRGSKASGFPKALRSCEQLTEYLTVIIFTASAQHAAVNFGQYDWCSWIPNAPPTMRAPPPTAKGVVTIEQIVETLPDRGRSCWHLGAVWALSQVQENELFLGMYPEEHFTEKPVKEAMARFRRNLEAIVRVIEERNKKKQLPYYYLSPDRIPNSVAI
Experimental: 2) 5-Lipoxygenase inhibitory effect
The assay was carried out by the method described in Journal of Biological Chemistry 258, 5754-5758 (1983) Casein was injected into the abdominal cavity of a guinea pig, and the polymorphonuclear leukocytes were collected and the cytosol fraction was obtained as an enzyme source. ^14 C-Arachidonic acid was reacted with the enzyme and the test drugs at various concentrations over a predetermined period of time. The obtained 5-hydroxyeicosatetraenoic acid was separated by thin-layer chromatography and the radioactivity was determined. By the comparison with the radioactivity of the control, the IC50 values were calculated.

[1] = test system: contraction of respiratory tract; test: Effect on allergic asthma (airway resistance after ovalbumin challenge in passively sensitized guinea pigs); format: in vivo, guinea pig (Hartley); settings: mean ± standard error, oral, 100 mg in 5 ml, 5 ml/kg, 2 hours before challenge, ovalbumin i.v., diphenhydramine, propranolol and indomethacin pretreatment
Experimental: 3. Effect on allergic asthma
To a guinea pig (Hartley, 350 to 400 g, male) was administered 0.5 ml/kg of a guinea pig anti-ovalbumin IgE serum for passive sensitization. Two days later, the guinea pig was anesthetized with pentobarbital (70 mg/kg) and a cannula and a catheter were each inserted into the trachea and a carotid artery, respectively. Further, the spontaneous respiration of the guinea pig was stopped with use of 0.5 mg/kg of pancuronium bromide and artificial respiration was conducted (100% oxygen at 1 kgf/cm^2, respirator: EVM-50A (manufactured by AIKA Co., Ltd.), predetermined flow rate of oxygen: 0.45 l/min, number of respiration: 40 times/min, time for inspiration: 0.25 sec/respiration). The measurement for contraction of respiratory tract was carried out by modified Konzett and Rossler method. A 100 mg quantity of the compound of the present invention was suspended in 5 ml of a 5% Tween-80-phosphate buffered physiological saline solution (pH 6.8). Two hours before the challenge, the test drug was orally administered in a volume of 5 ml/kg. The same quantity of the solvent alone was orally administered to a control group. Further, 2.5 mg/kg of diphenhydramine, 0.05 mg/kg of propranolol and 5 mg/kg of indomethacin were intravenously administered 5 minutes before the challenge. A 22.5 to 35 μg/kg quantity of ovalbumin was intravenously administered and the contraction of respiratory tract was measured as airway resistance with use of a pressure transducer. The maximum airway resistance was taken as 100%, and the change in the airway resistance caused a predetermined period of time after the challenge was shown as the ratio relative to the maximum airway resistance.

SMILES	IC50 (Cyclooxygenase) [µM]	IC50 (5-Lipoxygenase) [µM]	Airway resistance (ratio relative to the maximum airway resistance) ([1]; 3 minutes after challenge, control 41.9 ± 7.0) [%]	Airway resistance (ratio relative to the maximum airway resistance) ([1]; 8 minutes after challenge, control 79.5 ± 5.4) [%]	Airway resistance (ratio relative to the maximum airway resistance) ([1]; 16 minutes after challenge, control 75.3 ± 5.8) [%]
O=C(/C=C/c1ccc(O)c(O)c1)OC(CN1CCN(CCCCCCCCCCO)CC1)c1ccc(Cl)cc1 (stereo not drawn) [Compound 15]	3.4	0.09			
CCCCCCCCCCN1CCN(C(=O)CNC(=O)/C=C/c2ccc(O)c(O)c2)CC1 [Compound 23]	4.2	0.04			
CCCCCCCCCCN1CCN(C(=O)/C=C/c2ccc(O)c(O)c2)CC1 [Compound 35]	8.4	0.04			
CCCCCCCCCCN1CCN(C(=O)CNC(=O)/C=C/c2ccc(OC(=O)OCC)c(OC(=O)OCC)c2)CC1 [Compound 40]			22.6 ± 3.7	45.6 ± 11.0	40.9 ± 11.3

The remaining compounds from weak to strong by IC50 (Cyclooxygenase), led by results:

IC50 (Cyclooxygenase) [µM]	IC50 (5-Lipoxygenase) [µM]	SMILES	Airway resistance (ratio relative to the maximum airway resistance) ([1]; 3 minutes after challenge, control 41.9 ± 7.0) [%]	Airway resistance (ratio relative to the maximum airway resistance) ([1]; 8 minutes after challenge, control 79.5 ± 5.4) [%]	Airway resistance (ratio relative to the maximum airway resistance) ([1]; 16 minutes after challenge, control 75.3 ± 5.8) [%]
9.9	0.32	O=C(Cc1ccc(O)c(O)c1)OC(CN1CCN(CCCCCCCCCCO)CC1)c1ccccc1 (stereo not drawn) [Compound 8]			
4.3	0.08	CCCCCCCCCCN1CCN(CC(OC(=O)/C=C/c2ccc(O)c(O)c2)c2ccccc2)CC1 (stereo not drawn) [Compound 19]			
2.9	0.12	CCCCCCCCN1CCN(C(=O)/C=C/c2ccc(O)c(O)c2)CC1 [Compound 36]			
